Each structure is given as a SMILES string. pIC50: −log10 of the molar value. Counter-ions that a name gives are not always drawn.

This is an account of results in patent US20220289719A1, “HETEROCYCLIC COMPOUNDS AS MNK INHIBITORS” (NANJING INNOCARE PHARMA TECH CO., LTD., priority 2017, published 2022).

T1 sequence (Q9BUB5 whole entry): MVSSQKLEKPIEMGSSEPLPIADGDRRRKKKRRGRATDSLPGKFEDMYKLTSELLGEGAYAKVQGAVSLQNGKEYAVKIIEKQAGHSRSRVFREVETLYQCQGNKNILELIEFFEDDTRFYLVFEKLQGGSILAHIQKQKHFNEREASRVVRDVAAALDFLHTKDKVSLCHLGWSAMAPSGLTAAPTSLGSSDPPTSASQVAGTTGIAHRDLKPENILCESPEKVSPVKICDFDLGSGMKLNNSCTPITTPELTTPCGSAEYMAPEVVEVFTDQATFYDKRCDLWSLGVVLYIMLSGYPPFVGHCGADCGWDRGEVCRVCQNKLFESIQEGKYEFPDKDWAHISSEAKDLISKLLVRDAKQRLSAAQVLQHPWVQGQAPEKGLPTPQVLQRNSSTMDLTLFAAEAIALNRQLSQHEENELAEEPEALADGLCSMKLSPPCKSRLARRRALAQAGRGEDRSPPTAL

This assay concerns the target T1, Human recombinant full-length MNK1 protein (Homo sapiens, UniProt Q9BUB5).
T1 construct: Human recombinant full-length MNK1 protein; purchased Thermo PR9138A
As to the kind of experiment: MNK1 inhibitory activity assay (ADP-Glo in vitro kinase assay). The class given is biochemical. Conditions: 10 concentration points. The procedure:
MNK1 Inhibitory Activity Assay: Evaluation of the effects of compounds of the invention on […] (MNK1) activity using in vitro kinase assays. The experimental methods are summarized as follows: The in vitro activity of MNK1 was determined by measuring the level of ADP produced in the kinase reaction using the ADP-Glo Kinase Assay Kit. The reaction buffer consisted of the following components: 50 mM HEPES, pH 7.5, 10 mM MgCl2, 1 mM EGTA, 0.01% Brij35. Human recombinant full-length MNK1 protein (Thermo, Cat. No. PR9138A) was diluted with a reaction buffer to a 3.13 ng/uL kinase solution. The substrate reaction solution consisted of a substrate diluted to 0.75 mg/ml in reaction buffer ([…], available from […] Domestic Company), 2250 uM ATP, the ADP-Glo reagent and kinase assay solution from Promega kit (Promega, V9102). […] If the compound IC50 value is very low, the initial concentration of the compound can be lowered. To a 384-well assay plate (Thermo, Cat. No. 264706) were added 1 uL of compound solution and 2 uL of MNK1 kinase solution. The mixture was mixed well and incubated for 30 minutes at room temperature; then 2 uL of substrate reaction solution was added, the reaction mixture was incubated for 120 minutes at room temperature. The reaction was terminated after an equal volume of 5uLADP-Glo solution was added, and the remaining ATP was completely consumed. After mixing for 60 minutes at room temperature, 10 ul of the kinase assay solution was added, and the mixture was uniformly mixed, and allowed to stand at room temperature for 40 minutes in the dark. The detection solution converts ADP into new ATP through coupled luciferase/luciferin, and ATP is converted into optical signal by Ultr-GloTM luciferase, which can be detected by Envision. The intensity of the light signal is proportional correlated with the amount of ADP produced in the kinase reaction, therefore, the activity of MNK1 kinase can be determined. In this experiment, the group without protein was used as a negative control (100% inhibition). The group with protein but without compounds was used as a positive control (0% inhibition).
In general terms: In ADP-Glo the light output rises with the ADP produced.
On to `COc1c(Nc2cc(Nc3ncccn3)ncn2)ccc2c1CNC2=O` [Compound 69, 5-((6-(Pyrimidin-2-ylamino)pyrimidin-4-yl)amino)-4-methoxyisodihydroindol-1-one], for which the negative logarithm of the IC50 (pIC50) was 7.56.

Take `COc1cc2[nH]ncc2cc1Nc1cc(NC(=O)C(C)C)ncn1` [Compound 19, N-(6-((6-Methoxy-1H-indazol-5-yl)amino)pyrimidin-4-yl)isobutyramide]: the negative-log IC50 (pIC50) is 7.35.

Consider `COc1cc2[nH]ncc2cc1Nc1ncncc1-c1nc2cccc(N3CCN[C@@H](C)C3)c2n1C` [Compound 64, 6-Methoxy-N-(4-{1-methyl-7-[(3S)-3-methylpiperazin-1-yl]-1H-benzimidazol-2-yl}pyrimidine-5-)-1H-indazol-5-amine], for which the pIC50 is 6.36.

On to `COc1c(Nc2cc(Nc3cccc(Cl)n3)ncn2)ccc2c1CNC2=O` [Compound 86, 5-((6-((6-Chloropyridin-2-yl)amino)pyrimidin-4-yl)amino)-4-methoxyisoindolin-1-one], for which the pIC50 is 7.73.

Turning to `COc1cc2[nH]ncc2cc1Nc1cc(Nc2ccccn2)ncn1` [Compound 20, 5-(6-(Pyridin-2-ylamino)pyrimidin-4-ylamino)-6-methoxy-1H-indazole formate], the pIC50 is 7.53.

Turning to `COc1c(Nc2cc(NC(=O)C3CC3)ncn2)ccc2c1CN(C)C2=O` [Compound 72, 5-((6-(Cyclopropionamido)pyrimidin-4-yl)amino)-4-methoxy-2-methylisodihydroindol-1-one], the pIC50 was 7.52.

On to `COc1cc2[nH]ncc2cc1Nc1cc(Nc2ccc(Cl)cn2)ncn1` [Compound 24, 5-(6-((5-Chloropyridin-2-yl)amino)pyrimidin-4-ylamino)-6-methoxy-1H-indazole formate], for which the negative logarithm of the IC50 (pIC50) is 7.37.

Regarding `COc1cc2[nH]ncc2cc1Nc1cc(Nc2cc(C(F)(F)F)ccn2)ncn1` [Compound 25, 5-(6-((4-(Trifluoromethyl)pyridin-2-yl)amino)pyrimidin-4-ylamino)-6-methoxy-1H-indazole], the pIC50 was 7.40.

In the case of `COc1cn2nccc2cc1Nc1cc(NC(=O)C2CC2)ncn1` [Compound 63, N-(6-((6-Methoxypyrazolo[1,5-a]pyridin-5-yl)amino)pyrimidin-4-yl)cyclopropanecarboxamide], the pIC50 is 7.01.

Consider `COc1cc2c(cnn2C(=O)OC(C)(C)C)cc1Nc1ncnc(N)c1-c1ccccn1` [Compound 43], for which the pIC50 is 6.58.

Turning to `COc1cc2[nH]ncc2cc1Nc1ncnc(NC(=O)C2CC2)c1C` [Compound 48, 5-((6-(Cyclopropionamido)-5-methylpyrimidin-4-yl)amino)-6-methoxy-1H-indazole], the negative-log IC50 (pIC50) was 6.73.

For `COc1cc(Nc2cc3cn[nH]c3cc2OC)ncn1` [Compound 51, 5-(6-Methoxypyrimidin-4-yl) amino)-6-methoxy-1H-indazole formate], the pIC50 is 6.70.

For `COc1cc2[nH]ncc2cc1Nc1ncncc1Nc1ccccc1` [Compound 57, 5-(5-Anilinopyrimidin-4-yl) amino)-6-methoxy-1H-indazole formate], the negative-log IC50 (pIC50) is 6.49.

Take `CCOC(=O)c1c(NC(C)=O)ncnc1Nc1cc2cn[nH]c2cc1OC` [Compound 38, 5-((6-(Acetylamino)-5-ethoxycarbonylpyrimidin-4-yl)amino)-6-methoxy-1H-indazole]: the pIC50 was 7.92.

As for `CCOc1cc2[nH]ncc2cc1Nc1cc(NC(=O)C2CC2)ncn1` [Compound 6, 5-(6-Cyclopropionamidopyrimidin-4-ylamino)-6-ethoxy-1H-indazole], the pIC50 was 7.53.

`COc1c(Nc2cc(Nc3cc(Cl)ccn3)ncn2)ccc2c1CNC2=O` [Compound 87, 5-((6-((4-Chloropyridin-2-yl)amino)pyrimidin-4-yl)amino)-4-methoxyisoindolin-1-one]: the pIC50 was 7.72.

In the case of `COc1c(Nc2cc(Nc3ccc(Cl)cn3)ncn2)ccc2c1CNC2=O` [Compound 85, 5-((6-((5-Chloropyridin-2-yl)amino)pyrimidin-4-yl)amino)-4-methoxyisoindolin-1-one], the pIC50 was 7.86.

On to `CNc1cncnc1Nc1cc2cn[nH]c2cc1OC` [Compound 62, 5-(5-Methylaminopyrimidin-4-yl) amino)-6-methoxy-1H-indazole formate], for which the pIC50 was 7.12.

In the case of `COc1cc2[nH]ncc2cc1Nc1ncncc1OCCO` [Compound 54, 5-(5-(2-Hydroxyethoxy)pyrimidin-4-yl) amino)-6-methoxy-1H-indazole formate], the pIC50 is 7.46.

As for `COc1c(N)ncnc1Nc1ccc2c(c1OC)CNC2=O` [Compound 71, 5-((6-Amino-5-methoxypyrimidin-4-yl)amino)-4-methoxyisoindolin-1-one], the negative-log IC50 (pIC50) is 6.89.

As to `COc1nc2[nH]ncc2cc1Nc1cc(NC(C)=O)ncn1` [Compound 50, 5-(6-(Acetamido)pyrimidin-4-yl) amino)-6-methoxy-1H-pyrazolo [3,4-b] pyridine formate], the negative logarithm of the IC50 (pIC50) is 6.60.

Consider `COc1cc2[nH]ncc2cc1Nc1ncnc2c1ncn2C` [Compound 59, N-(6-Methoxy-1H-indazol-5-yl)-9-methyl-9H-purin-6-amine], for which the negative-log IC50 (pIC50) was 6.36.

In the case of `COc1cc2[nH]ncc2cc1Nc1ncnc(N)c1C#N` [Compound 42, 5-((6-Amino-5-cyanopyrimidin-4-yl)amino)-6-methoxy-1H-indazole], the negative-log IC50 (pIC50) is 6.22.

As to `CCOC(=O)c1c(N)ncnc1Nc1cc2cnn(C(=O)OC(C)(C)C)c2cc1OC` [Compound 35, 1-tert-Butoxycarbonyl-5-((6-amino-5-ethoxycarbonylpyrimidin-4-yl)amino)-6-methoxyindazole], the pIC50 is 7.49.

Turning to `COc1cc2[nH]ncc2cc1Nc1cc(Nc2cnccn2)ncn1` [Compound 29, 5-(6-(Pyrazin-2-ylamino)pyrimidin-4-ylamino)-6-methoxy-1H-indazole], the pIC50 is 7.24.

Consider `COc1c(Nc2ncnc3[nH]cnc23)ccc2c1CNC2=O` [Compound 80, 5-((9H-Purin-6-yl)amino)-4-methoxyisoindolin-1-one], for which the pIC50 is 7.93.

Turning to `CNc1cncnc1Nc1ccc2c(c1OC)CNC2=O` [Compound 82, 5-((5-Methylaminopyrimidin-4-yl)amino)-4-methoxyisodihydroindole-1-one formate], the pIC50 is 6.81.

`COc1cc2[nH]ncc2cc1Nc1cc(N)ncn1` [Compound 9, 5-(6-aminopyrimidin-4-ylamino)-6-methoxy-1H-indazole]: the pIC50 was 6.53.

Regarding `COC(=O)n1ncc2cc(Nc3cc(NC(=O)C4CC4)ncn3)c(OC)cc21` [Compound 17, 1-Methoxyacyl-5-(6-cyclopropionamidopyrimidin-4-ylamino)-6-methoxyindazole], the pIC50 was 7.55.

Turning to `COc1cc2c(cnn2C(=O)C2CCCCC2)cc1Nc1cc(NC(=O)C2CC2)ncn1` [Compound 8, 1-Cyclohexanoyl-5-(6-cyclopropionamidopyrimidin-4-ylamino)-6-methoxyindazole], the negative-log IC50 (pIC50) was 7.19.

On to `COc1cc2c(cnn2C)cc1Nc1cc(NC(=O)C2CC2)ncn1` [Compound 5, 5-(6-Cyclopropionamidopyrimidin-4-ylamino)-6-methoxyl-methylindazole formate], for which the pIC50 is 6.23.

Regarding `COc1cc2[nH]ncc2cc1Nc1cc(Nc2cccc(Cl)n2)ncn1` [Compound 23, 5-(6-((6-Chloropyridin-2-yl)amino)pyrimidin-4-ylamino)-6-methoxy-1H-indazole], the pIC50 is 7.50.

For `COc1cc2[nH]ncc2cc1Nc1cc(NS(=O)(=O)C2CC2)ncn1` [Compound 49, 5-((6-(Cyclopropanesulfonylamino)pyrimidin-4-yl)amino)-6-methoxy-1H-indazole], the pIC50 is 5.98.

As for `COc1cc2c(cnn2C(=O)C2CC2)cc1Nc1cc(NC(=O)C2CC2)ncn1` [Compound 14, 1-Cyclopropanoyl-5-(6-cyclopropionamidopyrimidin-4-ylamino)-6-methoxyindazole], the pIC50 is 5.96.

With `COc1cc2[nH]ncc2cc1Nc1cc(NC2CC2)ncn1` [Compound 31, 5-(6-Cyclopropylaminopyrimidin-4-ylamino)-6-methoxy-1H-indazole formate], the pIC50 was 6.90.

For the compound `COc1c(Nc2cc(Nc3ncccc3Cl)ncn2)ccc2c1CNC2=O` [Compound 83, 5-((6-((3-Chloropyridin-2-yl)amino)pyrimidin-4-yl)amino)-4-methoxyisoindolin-1-one], the pIC50 was 7.02.

For `COc1cc2[nH]ncc2cc1Nc1ncnc(N)c1F` [Compound 45, 5-((6-Amino-5-fluoropyrimidin-4-yl)amino)-6-methoxy-1H-indazole], the pIC50 was 7.45.

Broadly, the pIC50 is the IC50 on a negative log10 scale, so that one unit is a factor of ten.
